Common to all, as to assay: inhibition of NH3-dependent nitrite production by intact cells
Format in all cases: cell-based

Experiment [1] concerns the target T1, AMO from "Ca. Nitrosotalea sinensis" Nd2 (Nitrosotalea sinensis, UniProt A0A2H1EFS5+A0A2H1EG39+A0A2H1EG64).
T1 construct: gene amoA; native membrane enzyme complex in intact cells (not purified)
The text has this:
inhibition of NH3-dependent nitrite production by intact cells on AMO from "Ca.

In experiment [2] the target is T2, AMO from Nitrosomonas europaea (Nitrosomonas europaea, UniProt Q04507+Q04508+Q82T63).
T2 construct: gene amoA1; native membrane enzyme complex in intact cells (not purified); genome carries duplicate amo operons
T2 sequence (Q04507 2-276): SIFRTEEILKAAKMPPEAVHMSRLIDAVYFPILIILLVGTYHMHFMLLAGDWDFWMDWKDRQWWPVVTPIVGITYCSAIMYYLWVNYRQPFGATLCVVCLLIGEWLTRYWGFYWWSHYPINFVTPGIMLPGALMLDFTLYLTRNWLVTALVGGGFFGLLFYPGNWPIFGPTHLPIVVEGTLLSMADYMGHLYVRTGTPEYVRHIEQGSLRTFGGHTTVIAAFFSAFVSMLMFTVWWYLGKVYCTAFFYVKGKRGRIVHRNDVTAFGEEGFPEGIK
T2 sequence (Q04508 26-420): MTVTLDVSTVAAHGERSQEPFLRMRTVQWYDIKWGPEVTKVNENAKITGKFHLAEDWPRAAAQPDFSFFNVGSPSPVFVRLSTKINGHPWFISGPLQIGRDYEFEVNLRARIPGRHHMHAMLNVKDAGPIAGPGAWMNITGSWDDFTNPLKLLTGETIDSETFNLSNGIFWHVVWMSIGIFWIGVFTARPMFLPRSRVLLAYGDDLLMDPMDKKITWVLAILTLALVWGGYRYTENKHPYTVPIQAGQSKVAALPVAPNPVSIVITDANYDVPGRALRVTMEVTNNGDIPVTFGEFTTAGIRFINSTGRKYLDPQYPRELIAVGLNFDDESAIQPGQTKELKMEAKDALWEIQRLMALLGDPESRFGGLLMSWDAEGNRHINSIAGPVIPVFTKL
T2 sequence (Q82T63 1-271): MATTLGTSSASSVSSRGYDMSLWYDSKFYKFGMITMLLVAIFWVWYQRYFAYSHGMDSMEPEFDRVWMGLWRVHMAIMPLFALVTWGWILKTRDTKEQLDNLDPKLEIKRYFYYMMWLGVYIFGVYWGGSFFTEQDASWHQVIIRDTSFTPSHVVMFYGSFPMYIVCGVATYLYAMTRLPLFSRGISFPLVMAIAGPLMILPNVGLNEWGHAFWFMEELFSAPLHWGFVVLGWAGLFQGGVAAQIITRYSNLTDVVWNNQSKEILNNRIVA

The target in experiment [3] is T3, AMO from "Ca. Nitrosocosmicus franklandus" C13 (Candidatus Nitrosocosmicus franklandianus, UniProt A0A484I8C2+A0A484I9U7+A0A484IBG0).
T3 construct: gene amoA; native membrane enzyme complex in intact cells (not purified); copper-dependent multimeric
T3 sequence (A0A484I9U7 1-216): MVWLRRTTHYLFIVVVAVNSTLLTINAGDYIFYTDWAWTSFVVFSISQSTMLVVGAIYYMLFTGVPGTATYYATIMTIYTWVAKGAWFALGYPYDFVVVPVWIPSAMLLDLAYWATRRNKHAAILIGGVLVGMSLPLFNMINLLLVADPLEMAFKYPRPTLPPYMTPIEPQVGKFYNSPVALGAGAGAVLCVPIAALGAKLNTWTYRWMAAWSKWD
T3 sequence (A0A484I8C2 1-192): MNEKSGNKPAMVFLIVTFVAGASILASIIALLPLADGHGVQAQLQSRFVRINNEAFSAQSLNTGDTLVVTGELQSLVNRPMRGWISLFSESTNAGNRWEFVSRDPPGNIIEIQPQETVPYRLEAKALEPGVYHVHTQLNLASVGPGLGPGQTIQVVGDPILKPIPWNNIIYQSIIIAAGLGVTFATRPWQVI
T3 sequence (A0A484IBG0 1-187): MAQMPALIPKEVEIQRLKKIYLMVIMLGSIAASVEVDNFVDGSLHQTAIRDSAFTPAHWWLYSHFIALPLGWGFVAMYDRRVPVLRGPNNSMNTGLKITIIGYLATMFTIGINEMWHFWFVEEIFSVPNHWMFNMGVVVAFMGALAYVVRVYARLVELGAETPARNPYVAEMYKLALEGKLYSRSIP
The source says:
inhibition of NH3-dependent nitrite production by intact cells on AMO from "Ca. Nitrosocosmicus franklandus" C13 | partial inhibition of NH3 oxidation by “Ca.

Experiment [4] concerns T4, pMMO from Methylococcus capsulatus (Bath).
T4 construct: gene pmoB; sMMO excluded by naphthalene assay
The note with it: 20 mM NH4+, 20 mM formate as reductant, 10 mM PIPES pH 7, 37°C, 30 min preincubation.

Experiment [5] addresses T2, AMO from Nitrosomonas europaea. The note with it: 1 mM NH4+, 50 mM sodium phosphate pH 7.7, 2 mM MgCl2, 30°C, 30 min preincubation.

The structures appear in SMILES notation. Bounds are passed on as bounds.

Results on five compounds are retold here after paper PMC7170481, “Inhibition of Ammonia Monooxygenase from Ammonia-Oxidizing Archaea by Linear and Aromatic Alkynes” (Applied and Environmental Microbiology, 2020).

T1 sequence (A0A2H1EG64 24-239 limits assumed): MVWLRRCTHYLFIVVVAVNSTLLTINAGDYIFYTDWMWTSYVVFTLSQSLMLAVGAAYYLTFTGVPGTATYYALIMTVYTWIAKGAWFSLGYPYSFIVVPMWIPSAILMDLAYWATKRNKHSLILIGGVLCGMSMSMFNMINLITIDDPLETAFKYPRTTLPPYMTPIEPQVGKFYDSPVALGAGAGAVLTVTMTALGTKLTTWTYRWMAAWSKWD
T1 sequence (A0A2H1EFS5 1-188): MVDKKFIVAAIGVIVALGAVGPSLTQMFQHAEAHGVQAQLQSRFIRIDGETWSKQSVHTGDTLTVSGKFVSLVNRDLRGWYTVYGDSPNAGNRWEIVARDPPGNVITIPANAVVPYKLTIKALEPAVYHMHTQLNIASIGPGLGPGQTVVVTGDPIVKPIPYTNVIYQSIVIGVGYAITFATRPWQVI
T1 sequence (A0A2H1EG39 1-187): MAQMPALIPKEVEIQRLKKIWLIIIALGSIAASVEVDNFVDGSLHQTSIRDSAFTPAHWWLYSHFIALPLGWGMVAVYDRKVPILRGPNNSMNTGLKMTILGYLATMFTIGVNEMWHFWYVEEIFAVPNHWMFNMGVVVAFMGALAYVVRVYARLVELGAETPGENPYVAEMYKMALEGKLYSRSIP

In the case of `C#CCCC` [C5, 1-pentyne], the values for the inhibition at 10 µM in experiment [1], in experiment [2] and in experiment [3] were 70 ± 1%, 98 ± 1% and 14 ± 1%, respectively. For the same compound, the “% inhibition at 10 μM” value in experiment [4] is reported as > 20%.
Consider `C#CCCCCCC` [C8, 1-octyne], for which, in experiment [5], the “% inhibition at 10 μM” value was “AMO activity was completely inhibited by C6 to C8 1-alkynes”.
For `C#CCCCC` [C6, 1-hexyne], the “% inhibition at 10 μM” value is “AMO activity was completely inhibited by C6 to C8 1-alkynes” in experiment [5] and ~ 10% in experiment [4].
On to `C#Cc1ccccc1` [PA, phenylacetylene], for which, in experiment [2] (read-out: % inhibition at 0.5 μM), the inhibition at 0.5 µM is 52.5 ± 1.7%. In addition, the inhibition at 5 µM in experiment [3] (read-out: % inhibition at 5 μM) was found to be 55.4 ± 1.4%.
As to `C#CCCCCC` [C7, 1-heptyne], the “% inhibition at 10 μM” value in experiment [5] is recorded as “AMO activity was completely inhibited by C6 to C8 1-alkynes”; in experiment [4], ~ 10%.
